Experimental findings from ChEMBL document CHEMBL5380795, “Design, Synthesis, and Bioactivity Investigation of Cyclic Lipopeptide Antibiotics Containing Eight to Nine Amino Acids” (J Med Chem, 2023) are described below.

Values after ≈ are worked out from the molar mass of the structure shown.

The test system of series [1] is Escherichia coli. Briefly: Antibacterial activity against Escherichia coli NCTC 13353 assessed as inhibition of bacterial growth incubated for 18 to 24 hrs by broth microdilution method. It is filed as functional. The note with it: time 18-24 hrs. For orientation: Dilution methods test growth across graded concentrations, often in twofold steps.
The subject of series [2] is Escherichia coli. Nature of the series: Antibacterial activity against KPC producing Escherichia coli ATCC BAA-2340 assessed as inhibition of bacterial growth incubated for 18 to 24 hrs by broth microdilution method. The series is classed as functional. The following applies: time 18-24 hrs.
Series [3] deals with Acinetobacter baumannii. Briefly: Antibacterial activity against oxacillinase-27 producing Acinetobacter baumannii NCTC 13304 assessed as inhibition of bacterial growth incubated for 18 to 24 hrs by broth microdilution method. The following applies: time 18-24 hrs. It is filed as functional.
The test system of series [4] is Staphylococcus epidermidis. Nature of the series: Antibacterial activity against methicillin resistant Staphylococcus epidermidis clinical isolate 19-6 assessed as inhibition of bacterial growth incubated for 18 to 24 hrs by broth microdilution method. It is filed as functional. The note with it: time 18-24 hrs.
Series [5] is described as follows: Selectivity index, ratio of IC50 for cytotoxicity against human HK-2 cells to MIC for antibacterial activity against Escherichia coli ATCC BAA-2523. It is filed as toxicity, cell-based.
The test system of series [6] is Staphylococcus epidermidis. Briefly: Antibacterial activity against methicillin resistant Staphylococcus epidermidis clinical isolate 19-5 assessed as inhibition of bacterial growth incubated for 18 to 24 hrs by broth microdilution method. The series is classed as functional. The note with it: time 18-24 hrs.
In series [7] the test system is Escherichia coli. Nature of the series: Antibacterial activity against Escherichia coli clinical isolate 19-2 assessed as inhibition of bacterial growth incubated for 18 to 24 hrs by broth microdilution method. It is filed as functional. The note with it: time 18-24 hrs.
Series [8] deals with Klebsiella pneumoniae. Briefly: Antibacterial activity against carbapenem resistant Klebsiella pneumoniae clinical isolate 19-15 assessed as inhibition of bacterial growth incubated for 18 to 24 hrs by broth microdilution method. The series is classed as functional. The following applies: time 18-24 hrs.
In series [9] the test system is Staphylococcus aureus. Nature of the series: Antibacterial activity against Staphylococcus aureus ATCC 29213 assessed as inhibition of bacterial growth incubated for 18 to 24 hrs by broth microdilution method. It is filed as functional. The following applies: time 18-24 hrs.
Series [10] concerns Klebsiella pneumoniae. Nature of the series: Antibacterial activity against carbapenem resistant Klebsiella pneumoniae clinical isolate 19-17 assessed as inhibition of bacterial growth incubated for 18 to 24 hrs by broth microdilution method. It is filed as functional. The note with it: time 18-24 hrs.
Series [11] has as its system Pseudomonas aeruginosa. Nature of the series: Antibacterial activity against Pseudomonas aeruginosa clinical isolate 19-1 assessed as inhibition of bacterial growth incubated for 18 to 24 hrs by broth microdilution method. The series is classed as functional. The note with it: time 18-24 hrs.
For series [12], the system named is Staphylococcus aureus. Briefly: Antibacterial activity against methicillin resistant Staphylococcus aureus ATCC 33591 assessed as inhibition of bacterial growth incubated for 18 to 24 hrs by broth microdilution method. The series is classed as functional. The note with it: time 18-24 hrs.
Series [13] has as its system Escherichia coli. Nature of the series: Antibacterial activity against Escherichia coli ATCC BAA-2523 assessed as inhibition of bacterial growth incubated for 18 to 24 hrs by broth microdilution method. The series is classed as functional. The note with it: time 18-24 hrs.
Series [14] has as its system Pseudomonas aeruginosa. Briefly: Antibacterial activity against carbapenem resistant Pseudomonas aeruginosa clinical isolate 17-1 assessed as inhibition of bacterial growth incubated for 18 to 24 hrs by broth microdilution method. The series is classed as functional. The following applies: time 18-24 hrs.
Series [15] relates to Klebsiella pneumoniae. Briefly: Antibacterial activity against KPC producing Klebsiella pneumoniae ATCC BAA-1705 assessed as inhibition of bacterial growth incubated for 18 to 24 hrs by broth microdilution method. It is filed as functional. The note with it: time 18-24 hrs.
Series [16] can be described thus: Cytotoxicity against human HK-2 cells assessed as inhibition of cell growth incubated for 72 hrs by CCK-8 assay. It is filed as toxicity, cell-based. A general note: Tetrazolium dyes change colour on reduction, which living cells bring about.
In series [17] the test system is Acinetobacter baumannii. Nature of the series: Antibacterial activity against carbapenem resistant Acinetobacter baumannii clinical isolate 19-8 assessed as inhibition of bacterial growth incubated for 18 to 24 hrs by broth microdilution method. The series is classed as functional. The note with it: time 18-24 hrs.
The test system of series [18] is Pseudomonas aeruginosa. Nature of the series: Antibacterial activity against Pseudomonas aeruginosa ATCC 27853 assessed as inhibition of bacterial growth incubated for 18 to 24 hrs by broth microdilution method. The note with it: time 18-24 hrs. It is filed as functional.
Series [19] concerns Pseudomonas aeruginosa. Briefly: Antibacterial activity against carbapenem resistant Pseudomonas aeruginosa clinical isolate 19-3 assessed as inhibition of bacterial growth incubated for 18 to 24 hrs by broth microdilution method. The following applies: time 18-24 hrs. It is filed as functional.

Broadly, the MIC is the lowest concentration that inhibits growth of the organism. Broadly, the IC50 is the midpoint of a concentration-inhibition curve. Regarding `CCCCCCCCCC(=O)N[C@H](CCN)C(=O)N[C@H]1CCNC(=O)[C@H]([C@@H](C)O)NC(=O)[C@H](CCN)NC(=O)[C@H](CCN)NC(=O)[C@H](CC(C)C)NC(=O)[C@@H](CC(C)C)NC(=O)[C@H](CCCCN)NC1=O`, the MIC was > 64 µg/mL in the series with Escherichia coli [1]; > 64 µg/mL in the series with Escherichia coli [2]; > 64 µg/mL in the series on Acinetobacter baumannii [3]; 32 µg/mL (≈ 31.7 µM) in series [4]; 8 µg/mL (≈ 7.92 µM) in [6]; > 64 µg/mL with Escherichia coli [7]. Moreover, the MIC in the series with Klebsiella pneumoniae [8], in the series with Staphylococcus aureus [9], in the series on Klebsiella pneumoniae [10], in the series on Pseudomonas aeruginosa [11], with Staphylococcus aureus [12] and with Escherichia coli [13] was > 64 µg/mL each time. Moreover, the minimal inhibitory concentration (MIC) with Pseudomonas aeruginosa [14], in the series with Klebsiella pneumoniae [15], with Acinetobacter baumannii [17], in the series on Pseudomonas aeruginosa [18] and with Pseudomonas aeruginosa [19] was > 64 µg/mL throughout. Besides, the selectivity ratio in series [5] was < 3.1. The IC50 at 72 h in series [16] worked out at 196 µg/mL (≈ 193 µM).

On to `CCCCCCCCCC(=O)N[C@H](CCN)C(=O)N[C@H]1CCNC(=O)[C@H](CC(=O)O)NC(=O)[C@H](CCN)NC(=O)[C@H](CCN)NC(=O)[C@H](CC(C)C)NC(=O)[C@@H](CC(C)C)NC(=O)[C@H](CCN)NC1=O`, for which the MIC (with Escherichia coli [1]; in the series with Escherichia coli [2]; in the series with Acinetobacter baumannii [3]; in series [4]; in series [6]; in the series on Escherichia coli [7]) was > 64 µg/mL in each case. Also, the minimum inhibitory concentration (MIC) with Klebsiella pneumoniae [8], with Staphylococcus aureus [9], in the series with Klebsiella pneumoniae [10], in the series with Pseudomonas aeruginosa [11], with Staphylococcus aureus [12] and in the series with Escherichia coli [13] was > 64 µg/mL in each case. Also, the MIC in the series on Pseudomonas aeruginosa [14], in the series on Klebsiella pneumoniae [15], in the series with Acinetobacter baumannii [17], in the series on Pseudomonas aeruginosa [18] and in the series with Pseudomonas aeruginosa [19] was > 64 µg/mL throughout. The selectivity ratio in series [5] was < 5.4. In addition, the IC50 at 72 h in series [16] was determined as 347 µg/mL (≈ 349 µM).

Consider `CC(C)C[C@@H]1NC(=O)[C@@H](CC(C)C)NC(=O)[C@H](CCN)NC(=O)[C@@H](NC(=O)[C@@H](CCN)NC(=O)CCCCCC(C)(C)C)CCNC(=O)[C@H]([C@@H](C)O)NC(=O)[C@H](CCN)NC(=O)[C@H](CCN)NC1=O`, for which the MIC with Escherichia coli [1] was 32 µg/mL (≈ 32.6 µM); with Escherichia coli [2] it was 16 µg/mL (≈ 16.3 µM); with Acinetobacter baumannii [3] it was > 64 µg/mL; in series [4], > 64 µg/mL; in series [6], 8 µg/mL (≈ 8.14 µM); in the series with Escherichia coli [7] it was 32 µg/mL (≈ 32.6 µM). The MIC in the series on Klebsiella pneumoniae [8] was 64 µg/mL (≈ 65.2 µM); in the series on Staphylococcus aureus [9], > 64 µg/mL; in the series with Klebsiella pneumoniae [10], > 64 µg/mL; in the series with Pseudomonas aeruginosa [11] it was 2 µg/mL (≈ 2.04 µM); in the series on Staphylococcus aureus [12] it was > 64 µg/mL; with Escherichia coli [13], 32 µg/mL (≈ 32.6 µM). In addition, the minimum inhibitory concentration (MIC) in the series with Pseudomonas aeruginosa [14] was 8 µg/mL (≈ 8.14 µM); in the series on Klebsiella pneumoniae [15] it was 32 µg/mL (≈ 32.6 µM); in the series on Acinetobacter baumannii [17], > 64 µg/mL; in the series with Pseudomonas aeruginosa [18], 2 µg/mL (≈ 2.04 µM); in the series on Pseudomonas aeruginosa [19] it was 8 µg/mL (≈ 8.14 µM). Moreover, the selectivity ratio in series [5] is 1.3. Further, in series [16], the IC50 at 72 h was 40.4 µg/mL (≈ 41.1 µM).

`CCCCCCC[C@@H](O)CC(=O)N[C@H](CO)C(=O)N[C@H](CCN)C(=O)N[C@H]1CCNC(=O)[C@H](CC(C)C)NC(=O)[C@H](CCN)NC(=O)[C@H](CCN)NC(=O)[C@H](Cc2ccccc2)NC(=O)[C@@H](CC(C)C)NC(=O)[C@H](CCN)NC1=O`: the MIC with Escherichia coli [1] turned out to be 16 µg/mL (≈ 14.1 µM); in the series on Escherichia coli [2] it was 4 µg/mL (≈ 3.54 µM); with Acinetobacter baumannii [3], 8 µg/mL (≈ 7.07 µM); in series [4], 8 µg/mL (≈ 7.07 µM); in series [6], 2 µg/mL (≈ 1.77 µM); in the series on Escherichia coli [7] it was 16 µg/mL (≈ 14.1 µM). The MIC in the series with Klebsiella pneumoniae [8] came out at 4 µg/mL (≈ 3.54 µM); with Staphylococcus aureus [9], 64 µg/mL (≈ 56.6 µM); with Klebsiella pneumoniae [10], 8 µg/mL (≈ 7.07 µM); in the series on Pseudomonas aeruginosa [11], 8 µg/mL (≈ 7.07 µM); with Staphylococcus aureus [12], 64 µg/mL (≈ 56.6 µM); with Escherichia coli [13], 4 µg/mL (≈ 3.54 µM). Further, the MIC in the series on Pseudomonas aeruginosa [14] is 2 µg/mL (≈ 1.77 µM); in the series on Klebsiella pneumoniae [15], 2 µg/mL (≈ 1.77 µM); with Acinetobacter baumannii [17] it was 16 µg/mL (≈ 14.1 µM); in the series with Pseudomonas aeruginosa [18], 2 µg/mL (≈ 1.77 µM); in the series with Pseudomonas aeruginosa [19], 2 µg/mL (≈ 1.77 µM). In series [5], the selectivity ratio turned out to be 13.9. Moreover, in series [16], the concentration for half-maximal inhibition (IC50) at 72 h turned out to be 55.4 µg/mL (≈ 49 µM).
